In US8609858B2, “Spiro derivatives of parthenin as novel anticancer agents” (Council of Scientific & Industrial Research, priority 2008, dated 2013):

Experiments:
[1] = tested on: human cancer cell lines; test: In vitro cytotoxicity screening, human cancer cell lines in general; format: cell-based; conditions: all the cell lines used, read-out: growth inhibition of human cancer cell lines
Description: (§1) Cells at sub confluent stage were harvested from the flask by treatment with trypsin (0.5% in PBS containing 0.02% EDTA) for determination of cytotoxicity. Cells with viability of more than 98%, as determined by trypan blue, were used for assay. The cell suspensions of required cell density were prepared in complete growth medium with gentamycin (50 μg/ml) for determination of cytotoxicity. The cells (100 μl/well) were inoculated in 96 well tissue culture plates. The cells were allowed to grow for 24 hrs temperature of 37° C. and in a humidified atmosphere of 5% CO2 in air. Stock solution of (20 mM) of test material was prepared in DMSO. The stock solution was serially diluted with complete growth medium containing 50 μg/ml of gentamycin to obtain […] working test solutions of 1., 2, 5, 10, 50 and 100 μM. In vitro cytotoxicity (IC50 value) against human cancer cell lines was determined using sulphodamine B dye.^5,6 The results are summarized in table 4.
(§2) The human Cancer Cell lines were obtained either from National Center for Cell Science, Pune, India or National Cancer Institute, Frederick, U.S.A. The human cancer cell colon: SW-620, prostrate, PC-3, DU-145 and acute lymphoblastic leukemia (MOLT-4) were grown and maintained in RPMI-1640 medium, pH 7.4, HEP-2. […]

[2] = tested on: acute lymphoblastic leukemia Cells (MOLT-4); test: DNA fragmentation by DNA gel electrophoresis; format: cell-based, human; conditions: 10, 50 & 100 μM, 24 hrs
Description: DNA fragmentation was determined by electrophoresis of extracted genomic DNA from acute lymphoblastic leukemia Cells (MOLT-4). Briefly, exponentially growing cells (3×10^6 cells/ml) in 6 well plates were treated with “Compound-17” (1, 10, 50 and 100 μM) for 24 hrs. Cells were harvested, washed with PBS, pellets were dissolved in lysis buffer (10 mM EDTA, 50 mM Tris Buffer, pH 8.0, 0.5% w/v SDS and proteinase K 0.5 mg/ml) and incubated at 50° C. for 1 hr. lysate was further incubated with RNase A (0.5 mg/ml) at 50° C. for 1 hr. Finally, the DNA obtained was heated rapidly to 70° C., supplemented with loading dye and immediately resolved on to 1.5% agarose gel at 50 V for 2-3 hrs (FIG. 2).

[3] = tested on: Ehrlich Ascites Carcinoma (EAC); test: Anti tumor activity on Ehrlich Ascites Carcinoma (EAC) bearing mice; format: in vivo; conditions: for % Tumor growth inhibition / Ascitic fluid volume (ml) Mean ± SE / Tumor cells in ascitic fluid (×10^7) Mean ± SE: nine days, day 12
From the text: Non-inbred swiss albino mice from an in-house colony were used in the present study. The breeding and experimental animals were housed in standard size polycarbonate cages providing internationally recommended space for each animal. Animals were fed balanced mice feed supplied by MIs Ashirwad Industries, Chandigarh (India) and autoclaved water was available ad libitum. Animals were cared as per the guide for the care and use of laboratory animals (1996), ILAR, Washington D.C. They were housed in controlled conditions of temperature (23±2° C.), humidity (50-60%) and 12:12 hrs of light: dark cycle. The study and the number of animals used were approved by the institutional animal ethics committee, IIIM, Jammu, India. The study was conducted as per the protocols of National Cancer Institute (NCl), USA (Geran et al., 1972).
Ehrlich Ascites Carcinoma (EAC) was propagated by transplanting 1×10^7 cells from an animal bearing 8-10 days old Ehrlich Ascites Carcinoma, into the peritoneal cavity of non-inbreed swiss mice. For testing, mice of the same sex weighing 20 ±3 g bearing ascites tumor were selected. 1×10^7 cells obtained from an animal bearing 8-10 days old ascites tumor were injected into peritoneal cavity of all animals used for testing (0 Day). On next day animals were randomized and divided into test groups (7 animals in each test group) and one tumor control group (10 animals). Test groups were treated with different doses of Parthenin (10 mg/kg, 25 mg/kg and 50 mg/kg) and its derivative Compound-17 (10 mg/kg, 25 mg/kg and 50 mg/kg, 100 mg/kg and 200 mg/kg) suspension in 1% gum acacia in their respective group intraperitonealy for nine consecutive days. Another test group was administered 5 FU @ 20 mg/kg i.p and served as positive control. The tumor control group was similarly administered normal saline (0.2 ml i.p). The percent tumor growth inhibition were measured on day 12 with respect to volume of ascitic fluid and the number of tumor cells in the ascitic fluid of peritoneal cavity (Geran et al., 1972; Singh et al., 2007).
The percent tumor growth inhibition was calculated as follow. % growth inhibition=100×(Average no. of cells in control group−Average no. of cells in test group)/Average no. of cells in control group Results: […]

[4] = tested on: Hep-2; test: In vitro cytotoxicity screening (sulphodamine B dye), Hep-2; format: cell-based; conditions: Homo sapiens, read-out: cell growth inhibition
Description: as §1, §2

[5] = tested on: DU-145; test: In vitro cytotoxicity screening (sulphodamine B dye), DU-145; format: cell-based; conditions: Homo sapiens
Description: as §1, with “Cells with viability of more than 98%, as determined by trypan blue, were used for assay.” left out, “μM.” for “μM. In vitro cytotoxicity (IC50 value) against human cancer cell lines was determined using sulphodamine B dye.^5,6 The results are summarized in table 4.”
(§3) The media were supplemented with FCS (10%), penicillin (100 Units/ml), streptomycin (100 μg/ml) and glutamine (2 mM) and cells were grown in CO2 incubator (Hera cell, Heraeus, USA) at 37° C. with 90% humidity and 5% CO2.

[6] = tested on: PC-3; test: In vitro cytotoxicity screening (sulphodamine B dye), PC-3; format: cell-based; conditions: Homo sapiens; PC-3 prostate cancer cell line
Description: as §1, with “Cells with viability of more than 98%, as determined by trypan blue, were used for assay.” left out, “μM.” for “μM. In vitro cytotoxicity (IC50 value) against human cancer cell lines was determined using sulphodamine B dye.^5,6 The results are summarized in table 4.”
as §3

**Q.** Which results are given for `C[C@H]1CC[C@@H]2[C@@H](OC(=O)C23CC(c2c4ccccc4cc4ccccc24)=NO3)[C@]2(C)C(=O)C=C[C@@]12O` (stereo partly shown) [Compound -17]?
**A.** inhibition at 5 µM [1]: ≥ 70%; DNA ladder (DNA fragmentation) [2]: DNA ladder was observed; % Tumor growth inhibition ([3]; 10 mg/kg i.p.): 7.74%; Ascitic fluid volume (ml) Mean ± SE ([3]; 10 mg/kg i.p.): 4.07 ± 0.35 mL; Tumor cells in ascitic fluid (×10^7) Mean ± SE ([3]; 10 mg/kg i.p.): 78.42 ± 2.90 ×10^7; % Tumor growth inhibition ([3]; 25 mg/kg i.p.): 19.16%; Ascitic fluid volume (ml) Mean ± SE ([3]; 25 mg/kg i.p.): 3.62 ± 0.32 mL; Tumor cells in ascitic fluid (×10^7) Mean ± SE ([3]; 25 mg/kg i.p.): 68.71 ± 3.16 ×10^7; % Tumor growth inhibition ([3]; 50 mg/kg i.p.): 27.23%; Ascitic fluid volume (ml) Mean ± SE ([3]; 50 mg/kg i.p.): 2.85 ± 0.37 mL; Tumor cells in ascitic fluid (×10^7) Mean ± SE ([3]; 50 mg/kg i.p.): 61.85 ± 4.20 ×10^7; % Tumor growth inhibition ([3]; 100 mg/kg i.p.): 60.50%; Ascitic fluid volume (ml) Mean ± SE ([3]; 100 mg/kg i.p.): 2.07 ± 0.33 mL; Tumor cells in ascitic fluid (×10^7) Mean ± SE ([3]; 100 mg/kg i.p.): 33.57 ± 2.60 ×10^7; mortality of test animals ([3]; 200 mg/kg i.p., EAC bearing mice): All animals died by 3rd day; inhibition at 5 µM [4]: 71%; IC50 ([5]; DU-145 prostate cancer cell line): 4.6 µM; inhibition at 5 µM ([5]; at 5 μM, DU-145, read-out: cell growth inhibition): 85%; IC50 [6]: 4.9 µM
